Literature values in PubChem BioAssay AID1259409 (Chemical Carcinogenesis Research Information System (CCRIS), 2018).

System: rodent chemically induced tumor inhibition, incidence and multiplicity
Test: CCRIS tumor inhibitor studies
Conditions: for tumour outcome (control, treated, inhibition, significance): Promoter: NONE USED

In the case of `S=C=NCc1ccccc1`, the “tumour outcome (control, treated, inhibition, significance)” value (Carcinogen: 7,12-DIMETHYLBENZ[A]ANTHRACENE, 57-97-6, Dose [Inhibitor]: 50 MG ONCE 4 HR BEFORE DMBA TREATMENT (STUDY DURATION: 18 WK), Route [Inhibitor]: INTRAGASTRIC, Species: RAT, Strain/Sex: SPRAGUE-DAWLEY/FEMALE, Target Tissue: Type of Lesion: MAMMARY GLAND: TUMOR, Dose [Carcinogen]: 12 MG IN 1 ML OLIVE OIL AT AGE 7 WK 4 HR BEFORE AGENT TREATMENT) is given as 100%, 14%, 86%, p<0.001, the “tumour outcome (control, treated, inhibition, significance)” value (Carcinogen: 7,12-DIMETHYLBENZ[A]ANTHRACENE, 57-97-6, Dose [Inhibitor]: 50 MG ONCE 24 HR BEFORE DMBA TREATMENT (STUDY DURATION: 18 WK), Route [Inhibitor]: INTRAGASTRIC, Species: RAT, Strain/Sex: SPRAGUE-DAWLEY/FEMALE, Target Tissue: Type of Lesion: MAMMARY GLAND: TUMOR, Dose [Carcinogen]: 12 MG IN 1 ML OLIVE OIL AT AGE 7 WK 24 HR AFTER AGENT TREATMENT) is given as 93%, 71%, 24%, not significant and the outcome (Carcinogen: BENZO[A]PYRENE, 50-32-8, Dose [Inhibitor]: 0, 5 UMOL IN ACETONE 4 HR PRIOR TO CARCINOGEN DOSE (STUDY DURATION: 20 WK), Route [Inhibitor]: DERMAL, Species: MOUSE, Strain/Sex: STRAIN-A/FEMALE, Target Tissue: Type of Lesion: SKIN: TUMOR, Dose [Carcinogen]: 0.1 UMOL IN ACETONE ONCE, Promoter: 12-O-TETRADECANOYLPHORBOL-13-ACETATE, 16561-29-8) is given as 70%, 60%, 14%, not significant at 15 wk; 95%, 75%, 21%, not significant at 20 wk. The “tumour outcome (control, treated, inhibition, significance)” value (Carcinogen: BENZO[A]PYRENE, 50-32-8, Dose [Inhibitor]: 0, 6.7 UMOL IN COTTONSEED OIL 15 MIN PRIOR TO CARCINOGEN DOSES 1/2 WK FOR 3 TREATMENTS (STUDY DURATION: 26 WK), Route [Inhibitor]: GAVAGE, Species: MOUSE, Strain/Sex: STRAIN-A/FEMALE, Target Tissue: Type of Lesion: FORESTOMACH: TUMOR, Dose [Carcinogen]: 7.9 UMOL IN COTTONSEED OIL 1/2 WK FOR 3 TREATMENTS) was 95%, 95%, 0%, not significant, the “tumour outcome (control, treated, inhibition, significance)” value (Carcinogen: BENZO[A]PYRENE, 50-32-8, Dose [Inhibitor]: 0, 6.7 UMOL IN COTTONSEED OIL 15 MIN PRIOR TO CARCINOGEN DOSES 1/2 WK FOR 3 TREATMENTS (STUDY DURATION: 26 WK), Route [Inhibitor]: GAVAGE, Species: MOUSE, Strain/Sex: STRAIN-A/FEMALE, Target Tissue: Type of Lesion: LUNG: TUMOR, Dose [Carcinogen]: 7.9 UMOL IN COTTONSEED OIL 1/2 WK FOR 3 TREATMENTS) was 95%, 80%, 16%, not significant and the “tumour outcome (control, treated, inhibition, significance)” value (Carcinogen: BENZO[A]PYRENE, 50-32-8, Dose [Inhibitor]: 5 MG/G DIET AT AGE 9 WK SIMULTANEOUSLY WITH CARCINOGEN, 3/WK FOR 6 WK (STUDY DURATION: 20 WK), Route [Inhibitor]: ORAL, Species: MOUSE, Strain/Sex: ICR/FEMALE, Target Tissue: Type of Lesion: FORESTOMACH: TUMOR, Dose [Carcinogen]: 0.3 MG/G DIET AT AGE 9 WK, 3/WK FOR 6 WK) was 41%, 0%, 100%, p<0.01. The “tumour outcome (control, treated, inhibition, significance)” value (Carcinogen: DIETHYLNITROSAMINE, 55-18-5, Dose [Inhibitor]: 0, 100 PPM IN DIET FOR DURATION OF STUDY BEGINNING 1 WK PRIOR TO CARCINOGEN DOSE (STUDY DURATION: 53 WK), Route [Inhibitor]: ORAL, Species: RAT, Strain/Sex: ACI/MALE, Target Tissue: Type of Lesion: LIVER: HEPATOCELLULAR ADENOMA, Dose [Carcinogen]: 200 MG/KG BW ONCE) was 10/18 (55%), 1/17 (6%), 89%, p<0.002, the “tumour outcome (control, treated, inhibition, significance)” value (Carcinogen: DIETHYLNITROSAMINE, 55-18-5, Dose [Inhibitor]: 0, 100 PPM IN DIET FOR DURATION OF STUDY BEGINNING 1 WK PRIOR TO CARCINOGEN DOSE (STUDY DURATION: 53 WK), Route [Inhibitor]: ORAL, Species: RAT, Strain/Sex: ACI/MALE, Target Tissue: Type of Lesion: LIVER: HEPATOCELLULAR CARCINOMA, Dose [Carcinogen]: 200 MG/KG BW ONCE) was 6/18 (33%), 0/17 (0%), 100%, p<0.02 and the “tumour outcome (control, treated, inhibition, significance)” value (Carcinogen: METHYLAZOXYMETHANOL ACETATE, 592-62-1, Dose [Inhibitor]: 0, 400 PPM IN DIET FOR 4 WK BEGINNING 1 WK PRIOR TO CARCINOGEN TREATMENT (STUDY DURATION: 49 WK), Route [Inhibitor]: ORAL, Species: RAT, Strain/Sex: ACI/FEMALE, Target Tissue: Type of Lesion: COLON: ADENOMA OR CARCINOMA, Dose [Carcinogen]: 25 MG/KG BW 1/WK FOR 3 WK) was 15/18 (83%), 9/19 (47%), 43%, p<0.05. For the same compound, the “tumour outcome (control, treated, inhibition, significance)” value (Carcinogen: METHYLAZOXYMETHANOL ACETATE, 592-62-1, Dose [Inhibitor]: 0, 400 PPM IN DIET FOR 46 WK BEGINNING 1 WK POST CARCINOGEN TREATMENT (STUDY DURATION: 49 WK), Route [Inhibitor]: ORAL, Species: RAT, Strain/Sex: ACI/FEMALE, Target Tissue: Type of Lesion: COLON: ADENOMA OR CARCINOMA, Dose [Carcinogen]: 25 MG/KG BW 1/WK FOR 3 WK) was 15/18 (83%), 17/19 (89%), -7%, not significant, the “tumour outcome (control, treated, inhibition, significance)” value (Carcinogen: METHYLAZOXYMETHANOL ACETATE, 592-62-1, Dose [Inhibitor]: 0, 400 PPM IN DIET FOR 46 WK BEGINNING 1 WK POST CARCINOGEN TREATMENT (STUDY DURATION: 49 WK), Route [Inhibitor]: ORAL, Species: RAT, Strain/Sex: ACI/FEMALE, Target Tissue: Type of Lesion: SMALL INTESTINE: CARCINOMA, Dose [Carcinogen]: 25 MG/KG BW 1/WK FOR 3 WK) was 10/18 (56%), 10/19 (53%), 5%, not significant and the “tumour outcome (control, treated, inhibition, significance)” value (Carcinogen: N-BUTYL-N-(4-HYDROXYBUTYL)NITROSAMINE (3817-11-6), Dose [Inhibitor]: 0, 10 PPM IN THE DIET FOR 40 WK (STUDY DURATION: 40 WK), Route [Inhibitor]: ORAL, Species: RAT, Strain/Sex: F344/MALE, Target Tissue: Type of Lesion: URINARY BLADDER: CARCINOMA, Dose [Carcinogen]: 50 PPM IN DRINKING WATER FOR 40 WK) was 19/20 (95%), 18/20 (90%), 5%, not significant. The “tumour outcome (control, treated, inhibition, significance)” value (Carcinogen: N-BUTYL-N-(4-HYDROXYBUTYL)NITROSAMINE (3817-11-6), Dose [Inhibitor]: 0, 10 PPM IN THE DIET FOR 40 WK (STUDY DURATION: 40 WK), Route [Inhibitor]: ORAL, Species: RAT, Strain/Sex: F344/MALE, Target Tissue: Type of Lesion: URINARY BLADDER: PAPILLOMA, Dose [Carcinogen]: 50 PPM IN DRINKING WATER FOR 40 WK) was 15/20 (75%), 11/20 (55%), 27%, not significant, the “tumour outcome (control, treated, inhibition, significance)” value (Carcinogen: N-BUTYL-N-(4-HYDROXYBUTYL)NITROSAMINE (3817-11-6), Dose [Inhibitor]: 0, 100 PPM IN THE DIET FOR 40 WK (STUDY DURATION: 40 WK), Route [Inhibitor]: ORAL, Species: RAT, Strain/Sex: F344/MALE, Target Tissue: Type of Lesion: URINARY BLADDER: CARCINOMA, Dose [Carcinogen]: 50 PPM IN DRINKING WATER FOR 40 WK) was 19/20 (95%), 15/20 (75%), 21%, not significant and the “tumour outcome (control, treated, inhibition, significance)” value (Carcinogen: N-BUTYL-N-(4-HYDROXYBUTYL)NITROSAMINE (3817-11-6), Dose [Inhibitor]: 0, 100 PPM IN THE DIET FOR 40 WK (STUDY DURATION: 40 WK), Route [Inhibitor]: ORAL, Species: RAT, Strain/Sex: F344/MALE, Target Tissue: Type of Lesion: URINARY BLADDER: PAPILLOMA, Dose [Carcinogen]: 50 PPM IN DRINKING WATER FOR 40 WK) was 15/20 (75%), 9/20 (45%), 40%, p< 0.05. For the same compound, the “tumour outcome (control, treated, inhibition, significance)” value (Carcinogen: N-BUTYL-N-(4-HYDROXYBUTYL)NITROSAMINE (3817-11-6), Dose [Inhibitor]: 0, 1000 PPM IN THE DIET FOR 40 WK (STUDY DURATION: 40 WK), Route [Inhibitor]: ORAL, Species: RAT, Strain/Sex: F344/MALE, Target Tissue: Type of Lesion: URINARY BLADDER: CARCINOMA, Dose [Carcinogen]: 50 PPM IN DRINKING WATER FOR 40 WK) was 19/20 (95%), 5/20 (25%), 74%, p< 0.01, the “tumour outcome (control, treated, inhibition, significance)” value (Carcinogen: N-BUTYL-N-(4-HYDROXYBUTYL)NITROSAMINE (3817-11-6), Dose [Inhibitor]: 0, 1000 PPM IN THE DIET FOR 40 WK (STUDY DURATION: 40 WK), Route [Inhibitor]: ORAL, Species: RAT, Strain/Sex: F344/MALE, Target Tissue: Type of Lesion: URINARY BLADDER: PAPILLOMA, Dose [Carcinogen]: 50 PPM IN DRINKING WATER FOR 40 WK) was 15/20 (75%), 2/20 (10%), 87%, p< 0.01 and the “tumour outcome (control, treated, inhibition, significance)” value (Carcinogen: N-NITROSOMETHYLBENZYLAMINE, 937-40-6, Dose [Inhibitor]: 0, 0.4 UMOL/G IN DIET FOR 25 WK BEGINNING 2 WK PRIOR TO CARCINOGEN TREATMENT (STUDY DURATION: 25 WK), Route [Inhibitor]: ORAL, Species: RAT, Strain/Sex: F344/MALE, Target Tissue: Type of Lesion: ESOPHAGUS: TUMOR, Dose [Carcinogen]: 0.5 MG/KG BW IN 20% DMSO 1/WK FOR 15 WK) was 100%, 100%, 0%, not significant. For the same compound, the “tumour outcome (control, treated, inhibition, significance)” value (Carcinogen: N-NITROSOMETHYLBENZYLAMINE, 937-40-6, Dose [Inhibitor]: 0, 1 UMOL/G IN DIET FOR 25 WK BEGINNING 2 WK PRIOR TO CARCINOGEN TREATMENT (STUDY DURATION: 25 WK), Route [Inhibitor]: ORAL, Species: RAT, Strain/Sex: F344/MALE, Target Tissue: Type of Lesion: ESOPHAGUS: TUMOR, Dose [Carcinogen]: 0.5 MG/KG BW IN 20% DMSO 1/WK FOR 15 WK) was 100%, 100%, 0%, not significant and the “tumour outcome (control, treated, inhibition, significance)” value (Carcinogen: N-NITROSOMETHYLBENZYLAMINE, 937-40-6, Dose [Inhibitor]: 0, 2.5 UMOL/G IN DIET FOR 25 WK BEGINNING 2 WK PRIOR TO CARCINOGEN TREATMENT (STUDY DURATION: 25 WK), Route [Inhibitor]: ORAL, Species: RAT, Strain/Sex: F344/MALE, Target Tissue: Type of Lesion: ESOPHAGUS: TUMOR, Dose [Carcinogen]: 0.5 MG/KG BW IN 20% DMSO 1/WK FOR 15 WK) was 100%, 100%, 0%, not significant.
